Here are results for 1 compound from patent publication US20240261242A1, “METHODS OF INTRAVENOUSLY ADMINISTERING SOTALOL” (AltaThera Pharmaceuticals LLC, priority 2018, published 2024).

A short description of series [1]: example IV sotalol treatment protocols with QTc interval monitoring. The format is in vivo, human. The procedure: An example sotalol treatment protocol for a patient experiencing AF and who is currently in normal sinus rhythm (which patient could have resumed normal sinus rhythm spontaneously, or by way of chemical cardioversion, or electrocardioversion) is described herein. The patient is admitted to a hospital or other facility capable of providing cardiac resuscitation and continuous electrocardiographic monitoring. The patient's creatinine clearance is determined to be 60-89 mL/min (mild renal impairment). The patient is connected to an electrocardiographic and an initial QTc is determined to be less than 450 ms. If the patient were to be administered multiple sequential oral doses, the physician would have selected an oral sotalol dosing regimen of 80 mg at a 12-hour interval. However, due to the patient's NPO status, the physician determines the patient should instead be administered an IV sotalol dosing regimen as a substitute for the selected oral dosing regimen. IV doses in an amount of 75 mg sotalol hydrochloride are administered to the patient at 12-hour interval as a substitute for oral dosing. It is noted that notwithstanding the patient's mild kidney impairment, no adjustment to the IV dosing amount or interval is made. That is, even though the patient's CrCl is lower than normal, neither the dose is adjusted lower nor the dosing interval increased to accommodate for the mild renal impairment. The 75 mg IV dose is administered to the patient over a period of 5 hours. The patient's QTc interval is measured, along with heart rate and blood pressure at selected times to ensure that the patient is tolerating the drug. […] Once it is determined that the patient/subject is capable of tolerating the sotalol, one or more subsequent doses of sotalol hydrochloride in an amount of 75 mg is administered to the subject at a 12-hour interval. The patient's QTc interval can continue to be monitored.
An example sotalol treatment protocol for a patient experiencing VT who is not currently in normal sinus rhythm is described herein. The patient is admitted to a hospital or other facility capable of providing cardiac resuscitation and continuous electrocardiographic monitoring. The patient's creatinine clearance is determined to be 10-29 mL/min (severe renal impairment). The patient is connected to an electrocardiographic and an initial QTc is determined to be less than 450 ms. If the patient were to be administered multiple sequential oral doses, the physician would have selected an oral sotalol dosing regimen of 120 mg at a 48-hour interval. However, the physician determines the patient should instead be administered an IV sotalol dosing regimen as a substitute for the selected oral dosing regimen. IV doses in an amount of 105 mg sotalol hydrochloride are administered to the patient at 48-hour interval as a substitute for oral dosing. The 105 mg IV dose is administered to the patient over a period of 5 hours. The patient's QTc interval is measured, along with heart rate and blood pressure at selected times to ensure that the patient is tolerating the drug. […] Once it is determined that the patient/subject is capable of tolerating the sotalol, one or more subsequent doses of sotalol hydrochloride in an amount of 105 mg is administered to the subject at a 48-hour interval. The patient's QTc interval can continue to be monitored.
An example sotalol treatment protocol for a patient with atrial flutter (AFL) and persistent atrial fibrillation who is not currently in normal sinus rhythm is described herein. The patient is admitted to a hospital or other facility capable of providing cardiac resuscitation and continuous electrocardiographic monitoring. The patient's creatinine clearance is determined to be ≥90 mL/min. The patient is connected to an electrocardiographic and an initial QTc is determined to be less than 450 ms. […]

For series [2] the following is noted: cited from earlier work.
For series [3] the following is noted: cited from earlier work. The source holds these as a separate data set.
Setting [4] is: Example 2: 75 mg IV over 5 hours at 12-hour interval, CrCl 60-89 mL/min, AF patient in sinus rhythm.
The mark [5] stands for this setting: Example 5: 105 mg IV over 5 hours at 48-hour interval, CrCl 10-29 mL/min, VT patient.
Where [6] appears, read: Example 6: 150 mg IV over 5 hours at 12-hour interval, CrCl ≥90 mL/min, AFL and persistent AF patient.
The mark [7] stands for this setting: Example 7: 112.5 mg IV over 5 hours at 12-hour interval, then escalated to 150 mg, CrCl 60-89 mL/min, PVC patient.

Consider `CC(C)NCC(O)c1ccc(NS(C)(=O)=O)cc1.Cl` (centres unmarked) [sotalol hydrochloride, d,1-N-[4-[1-hydroxy-2-[(1-methylethyl)amino]ethyl]phenyl] methane-sulfonamide monohydrochloride], for which the QTc interval in series [1] (setting [4]), in series [1] (setting [5]), in series [1] (setting [6]) and in series [1] (setting [7]) was not above 500 ms in each case. For the same compound, the ΔQTc entry in series [1] (setting [4]), in series [1] (setting [5]), in series [1] (setting [6]) and in series [1] (setting [7]) was “less than 20%” throughout. The “time to steady-state plasma levels and maximum QTc prolongation” value in series [2] (oral administration, twice daily (after 5-6 doses)) was 3 days. Besides, the bioavailable in series [2] (oral, taken on an empty stomach) is approximately 100%. Moreover, in series [3], the solubility result was “soluble in water, propylene glycol, and ethanol”.
